For assay [1], the system named is WIL-FL*. In words: FP artefact counterscreen (compounds added after 24 h of proteinase K treatment). Further details: concentration or dose not given beside the values. Type of assay: biochemical, human. The note with it: compound added after 24 h PK treatment; mean ± sd, n=3. The protocol: Secondly, to remove compounds that interfere with the FP measurement, the primary screen was repeated in triplicate but compounds were added after 24 h of proteinase K treatment (FIG. 1f). […] Bona fide hits should retain no FP beyond the low control.
(In general: A counterscreen serves to expose hits that act by an unwanted route or on another target.)

The target in assay [2] is T1, WIL-FL (Homo sapiens, UniProt P01721). In words: Kinetic unfolding in urea. It is filed as biochemical. The note with it: 5 at 50 μM, WIL-FL 5 μM; 3.57 s^−1 for WIL-FL alone. The protocol: Kinetic unfolding. WIL-FL (5 μM) in 50 mM sodium phosphate buffer, pH 7.0, containing 50 μM 5 was rapidly diluted into urea in 50 mM sodium phosphate buffer and 50 μM 5 using an APP SX-20 stopped flow fluorimeter at 37° C. The change in fluorescence emission >335 nm was measured as a function of time (λex=280 nm). […] Kinetic transients were fitted to single exponential curves and rates extracted.

Assay [3] deals with T1, WIL-FL. The assay is described as follows: Equilibrium unfolding, urea titration. It is filed as biochemical. The note with it: 1 at 100 μM or 5 at 50 μM, WIL-FL 5 μM; 1.4 M without ligand. As to the method: Equilibrium unfolding. WIL-FL (5 μM) was titrated against urea in 50 mM sodium phosphate buffer, pH 7.0, containing 50 μM 5 or 100 μM 1. After incubation overnight at 25° C., intrinsic tryptophan fluorescence emission spectra were measured using a Jasco 8600 fluorimeter (μex=280 nm, μem=300-420 nm). Average wavelength (also known as center of spectral mass) values were calculated using the equation: […]
λi and Ii are the are the wavelength and intensity at i, respectively. Average wavelength data were normalized for comparison. […] Midpoint urea concentrations were calculated by fitting the titration data to a 2-state unfolding equation: […]
x is the urea concentration (M), G is the free energy of unfolding (kJ mol^−1), m is the denaturant dependence of the unfolding reaction (kJ mol^−1 M^−1), R is the ideal gas constant, T is the temperature in K, a and c are the fluorescence of the folded and unfolded states, and b and d are the denaturant dependence of the fluorescence of the folded and unfolded states, respectively.

The target in assay [4] is T2, WIL-FL* (Homo sapiens, UniProt P01721, K101C, form not given). The assay is described as follows: PCFP assay with thermolysin. The note with it: mean ± sd, n=3; 6.75 μM compound.
The target of assay [5] is T2, WIL-FL*. In words: Protease-coupled fluorescence polarization (PCFP) assay with proteinase K. To be noted: for pEC50: from dose response curves measured during the screening process; for PK activity (%): secondary screen, mean ± sd, n=3, 6.75 μM compound, FP retention after 24 h at 22° C., normalized to high and low controls. Background: Fluorescence polarisation rises when a labelled molecule tumbles more slowly, as on binding a larger partner.

Assay [6] deals with T1, WIL-FL. The assay is described as follows: PK proteolysis of unlabeled WIL-FL by SDS-PAGE. The note with it: WIL-FL 10 μM, small molecule 100 μM, t=2 h.
Experimental: The experiment in FIG. 1b measured simultaneous proteolysis of labeled and unlabeled LC by adding 20 nM WIL-FL* or JTO-FL* to 5 μM WIL-FL or JTO-FL, respectively. Fluorescein fluorescence images of the SDS-PAGE gels were recorded, after which the gels were Coomassie stained and imaged.

We go through 9 compounds from patent US11945806B2, “Stabilization of amyloidogenic immunoglobulin light chains” (The Scripps Research Institute, priority 2019, dated 2024).

Broadly, the pEC50 is the negative decadic logarithm of the EC50, by convention in mol/L.

pEC50: −log10 of the molar value.

Turning to `Cc1cc(O)nc(N/N=C/C=C/c2ccccc2[N+](=O)[O-])n1` [Compound 5], in the assay with WIL-FL* [1], the “Counterscreen activity (%)” value came to 8.04 ± 2.6%. Also, the “unfolding rate constant (extrapolated to the absence of denaturant)” value at WIL-FL [2] is 2.43 s⁻¹. The “midpoint concentration of urea required to unfold the FL LC” value on WIL-FL [3] is 2.0 M. Moreover, the “Thermolysin activity (%)” value at WIL-FL* [4] was found to be 61.1 ± 5.0%. For the same compound, at WIL-FL* [5], the pEC50 was 5.26 and the “PK activity (%)” value was 65.2 ± 2.8%.

As to `Cc1cc(=O)oc2cc(OC(C)c3ccccc3)ccc12` (centres unmarked) [Compound 3], the “Counterscreen activity (%)” value in the assay on WIL-FL* [1] is −2.52 ± 5.8%. The “Thermolysin activity (%)” value at WIL-FL* [4] turned out to be 38.7 ± 3.7%. The “PK activity (%)” value at WIL-FL* [5] worked out at 43.3 ± 1.5%.

Consider `CC1CCCCC12NC(=O)N(CC(=O)Nc1ccc(C(F)(F)F)cc1)C2=O` (centres unmarked) [Compound 7], for which the “Counterscreen activity (%)” value in the assay on WIL-FL* [1] turned out to be 2.51 ± 4.7%. For the same compound, the “Thermolysin activity (%)” value at WIL-FL* [4] turned out to be 26.3 ± 1.7%. At WIL-FL* [5], the pEC50 is 5.23 and the “PK activity (%)” value was 29.3 ± 2.5%.

On to `CCN(CC)c1ccc2c(C)c(Cl)c(=O)oc2c1` [Compound 10], for which the “Counterscreen activity (%)” value with WIL-FL* [1] is −1.54 ± 2.4%. Besides, the “Thermolysin activity (%)” value on WIL-FL* [4] is 55.5 ± 3.3%. Moreover, on WIL-FL* [5], the pEC50 is 5.40 and the “PK activity (%)” value was found to be 48.0 ± 3.8%.

On to `CC(C)CC1NC(=O)N(CC(=O)Nc2ccc(C(F)(F)F)cc2)C1=O` (racemic) [Compound 8], for which the “Counterscreen activity (%)” value in the assay on WIL-FL* [1] is −2.05 ± 2.9%. Moreover, the “Thermolysin activity (%)” value at WIL-FL* [4] is listed as 50.8 ± 1.7%. Also, at WIL-FL* [5], the pEC50 was 5.13 and the “PK activity (%)” value is 48.0 ± 2.4%.

Consider `CCN(CC)c1ccc2c(CN3CCOCC3)cc(=O)oc2c1` [Compound 13], for which the “Counterscreen activity (%)” value with WIL-FL* [1] is −4.10 ± 1.5%. Moreover, the “Thermolysin activity (%)” value at WIL-FL* [4] was 23.3 ± 8.5%. In addition, on WIL-FL* [5], the pEC50 was 5.04 and the “PK activity (%)” value turned out to be 4.21 ± 4.4%.

As for `CN(C)c1ccc(C2OCC(Cl)([N+](=O)O)CO2)cc1` (centres unmarked) [Compound 16], the “Counterscreen activity (%)” value with WIL-FL* [1] is recorded as −3.09 ± 3.0%. Also, at WIL-FL* [4], the “Thermolysin activity (%)” value is listed as 29.1 ± 0.3%. Moreover, at WIL-FL* [5], the pEC50 is 5.17 and the “PK activity (%)” value is 50.5 ± 5.3%.

As to `CCN(CC)c1ccc2ccc(=O)oc2c1` [Compound 9], the “Counterscreen activity (%)” value with WIL-FL* [1] was −3.45 ± 3.89%. Further, the “Thermolysin activity (%)” value on WIL-FL* [4] worked out at 27.1 ± 1.3%. Also, the “protection of WIL-FL against PK proteolysis” value at WIL-FL [6] is recorded as “stabilizes WIL-FL, but is less efficacious than 1”. Moreover, on WIL-FL* [5], the pEC50 was 5.10 and the “PK activity (%)” value came out at 37.9 ± 1.1%.

As to `CC(Oc1ccc(/C=C(\C#N)C(N)=O)cc1)c1ccccc1` (centres unmarked) [Compound 4], the “Counterscreen activity (%)” value in the assay with WIL-FL* [1] was −7.4 ± 4.0%. Also, on WIL-FL* [4], the “Thermolysin activity (%)” value amounted to 40.4 ± 1.2%. Also, on WIL-FL* [5], the pEC50 was 5.20 and the “PK activity (%)” value came to 48.9 ± 2.6%.
